How the values were obtained:
[1] = system: adenosine aggregates in ADA deficient LCLs; experiment: Aggregation assay (Proteostat, FACS) on ADA deficient LCLs; format: cell-based, human; conditions: patient derived lymphoblastoids, adenosine, 19 concentrations from 50 μM to 0.003 μM
Experimental: 24 hours after seeding in full medium cells were washed with medium without serum and placed in medium without serum. Following 72 hours of incubation with or without Adenosine (A9251 SIGMA) (200 ug/ml), cells were washed with PBS and stained for adenosine aggregates with Proteostat dye (ENZ-51023-KP002). Proteostat concentration was 1:3000 of diluted stock. Following 15 minutes' incubation, cells were washed with PBS and mean fluorescence was measured with FACS.
Cells were treated with adenosine alone or with adenosine with compounds. Compound activity was tested in 19 concentrations in range from 50 uM to 0.003 uM.
Readouts: Proteostat Fluorescence intensity was measured with FACS at 2 excitation wavelengths: 488 nm and 550 nm. Emission wavelength was 600 nm.
24 hours after seeding in 96 round bottom plates in full medium cells were washed once with medium without serum and placed in medium without serum. Following 72 hours of incubation with or without Adenosine (200 ug/ml) and with or without purpurin (2 uM), cells were washed once with PBS and stained for adenosine aggregates with Proteostat dye (Enzo Life Sciences). Proteostat concentration was 1:4000 of diluted stock. Following 15 minutes incubation, cells were washed with PBS and mean flow cytometry was preformed using Stratedigm S1000EXi and the CellCapTure software (Stratedigm, San Jose, Calif.). Analyses were performed using FlowJo software (TreeStar, version 10).
For quantification of intracellular adenosine aggregates by FACS analyses, 100,000 cells were seeded in 96 well plates in full medium. After 24 hours, cells were centrifuged, washed once and added with serum free medium with or without Adenosine (200 μg/ml). After incubation of 72 hours cells were washed with PBS and stained for adenosine aggregates with Proteostat dye. Following 15 minutes incubation, cells were washed with PBS and mean fluorescence was measured with FACS. Mean cell fluorescence of every cell line was normalized to its signal without adenosine and data is presented as percentage of aggregates.

adenine fibrils = experiment: ThT assay of adenine self-assembly inhibition in vitro; conditions: for amyloids staining (ThT, end point): adenine 8 mg/ml in PBS with inhibitor
Experimental: Adenine was dissolved at 90° C. in PBS to a final concentration of 8 mg/ml and mixed with the indicated inhibitor, at the indicated concentrations, or with PBS as a control, followed by addition of ThT in PBS. ThT emission data at 480 nm (excitation at 450 nm) were measured at the end point.
Adenine was dissolved to a final concentration of 8 mg/ml at 90° C. in PBS. The solution was plated on a 96-well black plate and mixed with the inhibitor baicalein at the stated concentration, and with 20 μm ThT (final concentration). Fluorescence (excitation at 450 nm, emission at 480 nm) was recorded over time using a Tecan™ Infinite® 200 PRO plate reader. Data processing was performed using the OriginLab software.
To further examine if the compounds specifically target the adenosine amyloid-like structures. the compounds were tested using adenine in-vitro aggregation assay. Adenine was self-assembled with and without the inhibitors and stained with the amyloids dye, Thioflavin T (ThT). […] More specifically. Adenosine (30 mg/mL) and guanosine (3 mg/ml) were dissolved in PBS at 90° C., followed by the addition of ThT at final concentration of 20 μM. ThT emission data at 480 nm (excitation at 450 nm) was measured over time. TEM images show elongated adenosine fibrils (10 mg/mL) and guanosine fibrils (1 mg/mL) (FIGS. 34A and 34B, respectively). ThT fluorescence assay of adenosine and guanosine assemblies, are shown by FIGS. 34C, and 34D respectively.

aah1Δapt1Δ strain = experiment: Yeast growth assay of adenine salvage mutant with adenine feeding; format: cell-based, Saccharomyces cerevisiae
Experimental: (§1) Strains were grown over night at 30° C. in SD medium without adenine. For spotting assays, strains were diluted to 6.25*10^7 cells/mL and were then 5-fold serially diluted and spotted on SD media with the indicated concentrations of adenine or TA (Sigma-Aldrich). Plates were incubated at 30° C. for 2 days. […] For OD600 measurements, strains were diluted to OD600 0.01, 200 μL of cells were platted on 96 wells plates and incubated at 30° C. for 25 hours with continuous shaking. OD600 was measured using Tecan™ SPARK 10M plate reader.
For the percentage of growth analysis (FIG. 10B and FIG. 13A), OD600 was measured when cells reached log phase. The percentage of growth represents the growth with TA compared to the growth without TA.

cys4Δ strain = experiment: Yeast growth assay of cys4Δ mutant with homocysteine; format: cell-based, Saccharomyces cerevisiae; conditions: compared to the wild-type strain, 20, 40, 80 mg/L
Experimental: FIG. 27E: WT and cys4Δ strains diluted to OD600 0.01 were grown in SD media containing 13 mg/L cysteine and 80 mg/L homocysteine in the under the indicated conditions. 0.3 mM TA was added to the samples at different OD600. The percentage of growth represents the growth the indicated condition compared to the growth of WT without TA. *P<0.05 (Student's t-test).
Homocystinuria results from cystathionine beta synthase (CBS) deficiency, leading to excess of Hcy. A knockout mutation in CYS4, the highly-conserved functional yeast ortholog of the human cystathionine beta synthase (CBS) known to be essential for Hcy salvage, was therefore generated. Due to the contribution of this enzyme to cysteine biosynthesis, it was first shown that its absence confers cysteine dependence (FIG. 27A). […] To examine whether the observed toxicity was associated with the in vivo formation of amyloid-like assemblies, the cells were stained with the amyloid-specific fluorescent dye ProteoStat which allows to detect intracellular amyloid fibrils. […] Next, to further establish the amyloid-like nature of the aggregates, the fibrillation-modifying polyphenolic compound tannic acid (TA) was used (FIG. 27E).

GABAA receptor = conditions: general description; cited from earlier work
aro3Δ mutant = experiment: Yeast growth assay of aro3Δ mutant with tyrosine feeding; format: cell-based, Saccharomyces cerevisiae; conditions: 4a.a SD medium with tyrosine
Experimental: as §1
The focus was put on a strain with a deletion of the ARO3 gene in which a significant decrease in cellular growth was observed upon tyrosine feeding (see FIG. 21). The inventors aimed to determine whether the toxic effect was influenced by different levels of tyrosine. Thus, the cellular growth of wild-type and the aro3Δ mutant was examined by serial dilutions on selective plates that were supplemented with different concentrations of tyrosine (FIG. 21A). In addition, cellular growth was also examined by measuring the turbidity of the medium upon addition of the indicated concentration of tyrosine (FIG. 21B). […] Thus, cell growth is affected by tyrosine levels in a dose-dependent manner which further supports the notion that the toxicity in the aro3Δ mutant results from the presence of tyrosine.
In order to examine the effect of EGCG on cell growth, the aro3Δ mutant was spotted on 4a.a SD plates that contained tyrosine alone or tyrosine with different concentrations of EGCG. […] Thus, the lag phase in the presence of EGCG was nearly the same as cells unexposed to tyrosine, indicating the potent ability of EGCG to eliminate the tyrosine sensitivity of the aro3Δ mutant. […] Next, the inventors aimed to gain additional insights into the effect of EGCG on the amyloid-like fibrils formed by the accumulation of tyrosine in the aro3Δ mutant cells. For that purpose, cells were stained with the amyloid-specific dye ProteoStat®, and FACS was applied to detect tyrosine aggregates. […] (FIG. 25).

fah-1 RNAi treated worms = experiment: C. elegans model for Tyrosinemia (fah-1 RNAi); format: in vivo, Caenorhabditis elegans; conditions: tyrosine added to fah-1 silenced worms
Experimental: (§2) Wild-type N2, RB857 and NL2099 worms were obtained from the Caenorhabditis Genetics Center. RNAi clones was obtained from the Ahringer RNAi library as previously described [Fisher A L, et al., J. Biol. Chem. 283: 9127-9135(2008)]. Worms were grown on NGM media without peptone and the metabolites were added into a boiling media. Baicalein and EGCG were added to a media after cooled down to 45 degrees.
Mutations in different enzymes that are involved in the tyrosine degradation pathway are responsible for different types of Tyrosinemia. The tyrosine degradation pathway in mammals and C. elegans in conserved and the most severe is type I Tyrosinemia, which is caused by mutations affecting the last enzyme in the pathway, fumarylacetoacetate hydrolase (FAH). To study Tyrosinemia in C. elegans model, an RNAi was used that specifically silences the fumarylacetoacetate hydrolase (fah-1), as was previously reported (K10C4.2). RNAi directed against fah-1 causes severe phenotype of reduced size, impaired fertility and reduction of total number of viable worms (FIG. 32).

estrogen receptor = estrogen receptor (Homo sapiens, UniProt P03372); conditions: general description; cited from earlier work
[2] = system: RB857 (PAH-1 mutant) and N2 (WT) worms; experiment: C. elegans model for PKU; format: in vivo, Caenorhabditis elegans; conditions: 100 mM phenylalanine in minimal media, Baicalein added
Experimental: as §2
To study PKU in C. elegans model, a strain was used with mutation in the PAH-1 gene (RB857)]. […] Next, the effect of one of the previously identified hits i.e. baicalein was examined on the development of worms. The life cycle of C. elegans is comprised of the embryonic stage, four larval stages (L1-L4) and adulthood. The end of each larval stage is marked with a molt, during which a new, stage-specific cuticle is synthesized and the old one is shed.

CYP2C9 = CYP2C9 (Homo sapiens, UniProt P11712); conditions: general description; cited from earlier work
lipoxygenases = conditions: general description; cited from earlier work
phenylalanine assemblies = conditions: reference [4]; cited from earlier work

CYP2C9, sequence (P11712 whole entry): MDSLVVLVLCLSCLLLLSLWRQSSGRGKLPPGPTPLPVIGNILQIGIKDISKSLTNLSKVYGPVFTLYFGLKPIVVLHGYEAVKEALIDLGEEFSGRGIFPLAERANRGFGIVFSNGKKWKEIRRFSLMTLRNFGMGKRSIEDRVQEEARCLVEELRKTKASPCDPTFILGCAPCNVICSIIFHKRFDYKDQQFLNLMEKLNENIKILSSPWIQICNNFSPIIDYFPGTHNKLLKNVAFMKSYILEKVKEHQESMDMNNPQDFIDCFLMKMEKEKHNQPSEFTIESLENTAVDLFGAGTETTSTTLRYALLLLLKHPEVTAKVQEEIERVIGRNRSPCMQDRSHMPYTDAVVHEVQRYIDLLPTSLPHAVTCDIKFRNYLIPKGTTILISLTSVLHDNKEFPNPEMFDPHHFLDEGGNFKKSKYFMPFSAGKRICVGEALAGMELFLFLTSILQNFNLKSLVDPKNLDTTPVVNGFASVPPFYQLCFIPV
estrogen receptor, sequence (P03372 whole entry, species assumed): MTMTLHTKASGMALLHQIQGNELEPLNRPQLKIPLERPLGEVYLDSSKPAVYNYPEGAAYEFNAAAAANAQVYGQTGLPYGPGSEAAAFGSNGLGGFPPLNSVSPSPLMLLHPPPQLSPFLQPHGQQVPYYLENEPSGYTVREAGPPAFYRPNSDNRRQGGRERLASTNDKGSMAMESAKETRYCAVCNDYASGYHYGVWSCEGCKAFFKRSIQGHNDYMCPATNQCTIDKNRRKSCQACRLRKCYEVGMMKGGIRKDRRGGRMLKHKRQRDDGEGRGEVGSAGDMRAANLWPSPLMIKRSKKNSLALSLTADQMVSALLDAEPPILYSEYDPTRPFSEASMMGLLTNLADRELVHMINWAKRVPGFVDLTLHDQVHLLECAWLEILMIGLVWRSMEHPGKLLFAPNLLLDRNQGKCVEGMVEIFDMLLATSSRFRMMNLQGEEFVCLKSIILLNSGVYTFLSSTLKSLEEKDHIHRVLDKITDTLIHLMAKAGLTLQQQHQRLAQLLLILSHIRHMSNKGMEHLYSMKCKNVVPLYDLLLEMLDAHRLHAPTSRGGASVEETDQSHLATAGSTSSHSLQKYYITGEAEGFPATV

Compound: O=C1c2ccccc2C(=O)c2c1ccc(O)c2O [Alizarin, 1,2-Dihydroxyanthracene-9,10-dione]
- formation of adenosine aggregates (aggregation level, Proteostat staining) [1]: significantly reduce the aggregation level
- formation of adenosine aggregates (aggregation level, Proteostat staining) ([1]; listed as alizarin): inhibited the formation of these aggregates

Compound: O=C1c2ccc(O)c(O)c2C(=O)c2c(O)ccc(O)c21 [Quinalizarin, 1,2,5,8-Tetrahydroxyanthracene-9,10-dione]
- formation of adenosine aggregates (aggregation level, Proteostat staining) [1]: significantly reduce the aggregation level
- formation of adenosine aggregates (aggregation level, Proteostat staining) ([1]; listed as quinalizarin): inhibited the formation of these aggregates
- amyloids staining (ThT, end point) (adenine fibrils): significantly reduced the amyloids staining

Compound: Nc1ncnc2nc[nH]c12 [adenine, Adenine]
- cell growth with increasing adenine levels in the medium (aah1Δapt1Δ strain; SD medium, adenine up to 40 mg/L): decreased cell growth in a dose-dependent manner

Compound: N[C@@H](CCS)C(=O)O [Hcy, homocysteine]
- growth of CYS4 mutant with Hcy in the growth medium (cys4Δ strain): sensitivity

Compound: O=C(O)[C@H]1O[C@@H](Oc2cc3oc(-c4ccccc4)cc(=O)c3c(O)c2O)[C@H](O)[C@@H](O)[C@@H]1O [baicalin, reference compound]
- modulation of the benzodiazepine site and/or a non-benzodiazepine site of the GABAA receptor (GABAA receptor): positive allosteric modulator

Compound: N[C@@H](Cc1ccc(O)cc1)C(=O)O [tyrosine]
- growth of aro3Δ mutant with increasing tyrosine concentration (aro3Δ mutant): increase of growth inhibition
- size, fertility and total number of viable worms (fah-1 RNAi treated worms): severe decline in all the observed phenotypes

Compound: O=c1cc(-c2ccccc2)oc2cc(O)c(O)c(O)c12 [Baicalein, 5,6,7-Trihydroxy-2-phenyl-chromen-4-one]
- modulation of the benzodiazepine site and/or a non-benzodiazepine site of the GABAA receptor (GABAA receptor): positive allosteric modulator
- activity at the estrogen receptor (estrogen receptor): antagonist
- total number of worms ([2]; N2 and RB857): beneficial effect on both strains
- development of worms (reaching adulthood) ([2]; RB857 and WT): dramatic beneficial effect on both strains
- formation of adenosine aggregates (aggregation level, Proteostat staining) [1]: significantly reduce the aggregation level
- formation of adenosine aggregates (aggregation level, Proteostat staining) ([1]; listed as baicalein): inhibited the formation of these aggregates
- inhibition of CYP2C9 (CYP2C9): inhibitor
- yeast cell growth (aah1Δapt1Δ strain; 2 mg/L adenine, baicalein 2.5, 5, 10 μM): significant effect on yeast cell growth
- adenine self-assembly in vitro (ThT fluorescence over time) (adenine fibrils; 8 mg/ml adenine, baicalein 5, 10, 100, 500 μM): dose-dependent inhibition of adenine self-assembly in vitro
- amyloids staining (ThT, end point) (adenine fibrils): significantly reduced the amyloids staining
- inhibition of certain types of lipoxygenases (lipoxygenases): inhibit

Compound: C[C@H]1c2cccc(O)c2C(=O)C2=C(O)[C@]3(O)C(=O)C(C(N)=O)=C(O)[C@@H](N(C)C)[C@@H]3[C@@H](O)[C@@H]21 [doxycycline]
- phenylalanine aggregation and cytotoxicity of the assemblies in vitro (phenylalanine assemblies): counteract
